{"source": "patent US20110191897A1", "about": "“Plants Tolerant to HPPD Inhibitor Herbicides” (Bayer CropScience AG, priority 2009, published 2011)", "key": {"[1]": {"system": "T1 tobacco plants with Arabidopsis HPPD", "assay": "Glasshouse spray trial, herbicidal damage", "assay_type": "in vivo, Nicotiana tabacum", "conditions": "100 gAl/ha, 7DAT", "description": "(§1) T0 Tobacco plants containing either the gene from Arabidopsis coding for HPPD or the gene FMP37e from Blepharisma japonicum coding for FMP37 HPPD, mentioned above (Example 3), were transferred to the glasshouse (28/20° C.), to develop further and produce seeds. Those seeds were harvested and put on soil (ED73 mixed with sand and osmocote Pro) to germinate in the glasshouse (28/20° C.). Three to four weeks later, plantlets were transferred to single pots containing the soil mentioned above. Two weeks later, plants of a size 4-6 cm diameter were sprayed with either • tembotrione at 100 Al/ha prepared from a WP20 (wettable powder 20%) formulation supplemented with ammonium sulfate and methyl ester raps oil, or • isoxaflutole at 100 Al/ha prepared from a WP20 formulation supplemented with ammonium sulfate and methyl ester raps oil, or • bicyclopyrone at 100 gAl/ha prepared from a WP20 formulation supplemented with ammonium sulfate and methyl ester raps oil, or • “blind formulation” made from a WP20 formulation without active ingredient (Al) supplemented with ammonium sulfate and methyl ester raps oil, and were then transferred to a growth chamber with adequate light conditions (20000Lux)."}, "[2]": {"system": "T1 tobacco plants with FMP37e coding for the HPPD FMP37", "assay": "Glasshouse spray trial, herbicidal damage", "assay_type": "in vivo, Nicotiana tabacum", "conditions": "100 gAl/ha, 7DAT", "description": "as §1"}, "[3]": {"system": "transgenic soybean shoots (FMP37)", "assay": "Soybean shoot greening on isoxaflutole selection", "assay_type": "in vivo", "conditions": "isoxaflutole as selection marker", "source_text": "(§2) Soybean transformation is achieved using methods well known in the art, such as the one described using the Agrobacterium tumefaciens mediated transformation soybean half-seed explants described by Paz et al. (2006, Plant cell Rep. 25:206). Transformants were identified using Isoxaflutole as selection marker. The appearance of green shoots was observed, and documented as an indicator of tolerance to the herbicide isoxaflutole."}, "wild-type soybean shoots": {"system": "wild-type soybean shoots", "assay": "Soybean shoot greening on isoxaflutole selection", "assay_type": "in vivo", "conditions": "same amount of isoxaflutole", "source_text": "as §2"}}, "note": "“And” between values parts separate entries of the source, which are not always exact repeats. Equal entries are not always repeated."}
{"smiles": "CS(=O)(=O)c1cc(C(F)(F)F)ccc1C(=O)c1cnoc1C1CC1", "note": "[Isoxaflutole, (5-cyclopropyl-4-isoxazolyl)[2-(methylsulfonyl)-4-(trifluoromethyl)phenyl]methanone]", "values": [{"measurement": "% injury", "setting": "[1]; line 252, individual plants", "value": 99, "unit": "%"}, {"measurement": "% injury", "setting": "[1]; line 327, individual plants", "value": "98% and 99% and 100% (4×)"}, {"measurement": "% injury", "setting": "[2]; line 113, individual plants", "value": "30% (4×) and 50%"}, {"measurement": "% injury", "setting": "[2]; line 207, individual plants", "value": 40, "unit": "%"}, {"measurement": "share of transgenic tested shoots showing normal greening", "setting": "[3]", "value": 1.5, "unit": "%"}, {"measurement": "appearance of shoots", "setting": "wild-type soybean shoots", "value": "entirely bleached"}]}
